In ChEMBL document CHEMBL3638677, “Bicyclic compounds and their uses as dual c-SRC/JAK inhibitors” (2015):

How the values were obtained:
[1] = molecular target: Tyrosine-protein kinase JAK2 (Homo sapiens, UniProt O60674); assay: (§1) TR-FRET Assay: Compounds were screened in the TR-FRET assay for JAK2 and c-Src kinase inhibition. Ultra light poly GT (Perkin Elmer) was used as the substrate for JAK2 and c-Src with the ATP concentration of 10 μM and 50 μM, respectively.
[2] = molecular target: Proto-oncogene tyrosine-protein kinase Src (Homo sapiens, UniProt P12931); assay: as §1, with “respectively. The Eu-labelled anti-phospho tyrosine antibody (Perkin Elmer) was added at 1 nM and the fluorescence emission at 615 nm and 665 nm was measured with an excitation wavelength of 340 nm.” for “respectively.”
Proto-oncogene tyrosine-protein kinase Src, sequence (P12931 2-536 limits assumed): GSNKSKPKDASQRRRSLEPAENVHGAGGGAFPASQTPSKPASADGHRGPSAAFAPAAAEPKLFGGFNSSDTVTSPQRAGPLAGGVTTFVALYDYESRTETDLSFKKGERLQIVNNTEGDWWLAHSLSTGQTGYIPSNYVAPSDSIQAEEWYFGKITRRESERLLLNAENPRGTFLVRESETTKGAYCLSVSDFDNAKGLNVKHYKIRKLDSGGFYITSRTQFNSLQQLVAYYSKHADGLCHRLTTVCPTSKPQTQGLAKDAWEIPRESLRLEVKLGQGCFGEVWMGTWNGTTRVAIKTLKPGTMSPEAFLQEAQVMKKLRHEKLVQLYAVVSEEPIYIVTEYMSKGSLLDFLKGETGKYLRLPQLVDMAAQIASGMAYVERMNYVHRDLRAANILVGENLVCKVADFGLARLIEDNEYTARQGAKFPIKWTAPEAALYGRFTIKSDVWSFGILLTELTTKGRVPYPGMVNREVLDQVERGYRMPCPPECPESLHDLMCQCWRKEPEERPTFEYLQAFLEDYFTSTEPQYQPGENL

Tyrosine-protein kinase JAK2, sequence (O60674 whole entry): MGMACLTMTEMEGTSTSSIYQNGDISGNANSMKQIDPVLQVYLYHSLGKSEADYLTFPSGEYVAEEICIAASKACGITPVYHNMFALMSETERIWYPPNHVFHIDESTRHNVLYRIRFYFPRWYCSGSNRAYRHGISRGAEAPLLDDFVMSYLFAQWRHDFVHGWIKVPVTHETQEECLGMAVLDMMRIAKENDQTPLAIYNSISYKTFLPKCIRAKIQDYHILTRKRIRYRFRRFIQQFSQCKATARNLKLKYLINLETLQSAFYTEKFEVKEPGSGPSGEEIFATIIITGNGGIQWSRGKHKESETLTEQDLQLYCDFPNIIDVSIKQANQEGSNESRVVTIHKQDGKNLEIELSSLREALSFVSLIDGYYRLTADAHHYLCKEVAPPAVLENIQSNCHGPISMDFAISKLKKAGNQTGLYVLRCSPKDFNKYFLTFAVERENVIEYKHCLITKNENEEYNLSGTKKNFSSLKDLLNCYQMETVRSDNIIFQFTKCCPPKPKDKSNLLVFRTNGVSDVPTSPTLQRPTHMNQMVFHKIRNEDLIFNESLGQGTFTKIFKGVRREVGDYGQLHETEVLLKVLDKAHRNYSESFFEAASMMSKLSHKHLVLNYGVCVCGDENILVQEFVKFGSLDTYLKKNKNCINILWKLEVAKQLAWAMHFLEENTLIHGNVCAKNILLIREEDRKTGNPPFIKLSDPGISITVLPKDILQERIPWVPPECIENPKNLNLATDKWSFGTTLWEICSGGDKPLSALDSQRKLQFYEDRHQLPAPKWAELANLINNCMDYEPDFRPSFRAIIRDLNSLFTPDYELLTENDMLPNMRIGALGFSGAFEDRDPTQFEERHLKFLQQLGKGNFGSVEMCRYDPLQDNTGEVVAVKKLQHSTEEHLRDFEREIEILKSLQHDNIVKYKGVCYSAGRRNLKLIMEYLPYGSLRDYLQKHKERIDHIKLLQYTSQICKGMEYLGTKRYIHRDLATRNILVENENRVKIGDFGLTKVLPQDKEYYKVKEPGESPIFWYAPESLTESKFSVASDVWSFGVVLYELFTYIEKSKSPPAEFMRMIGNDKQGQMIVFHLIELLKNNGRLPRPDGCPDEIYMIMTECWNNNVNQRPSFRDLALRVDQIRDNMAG

Row | IC50 [1] [nM] | IC50 [2] [nM] | SMILES
1 | 7 | 2 | Cc1ccc(NC(=O)c2cccc(C(F)(F)F)c2)cc1N1CCc2nc(Nc3ccc(C(=O)NC4CCN(C)CC4)cc3)ncc2C1
2 | 45 | 28 | Cc1ccc(NC(=O)c2cccc(C(C)(C)C)c2)cc1N1CCc2nc(Nc3ccc(N4CCN(C)CC4)cc3)ncc2C1=O
3 | 8.8 | – | CN1CCN(c2ccc(Nc3ncc4c(n3)CCN(c3cc(NC(=O)c5cccc(C(F)(F)F)c5)ccc3Cl)C4)cc2)CC1
4 | 9 | – | CN1CCN(c2ccc(Nc3ncc4c(n3)CCN(c3cc(NC(=O)c5cc(F)cc(C(F)(F)F)c5)ccc3Cl)C4=O)cc2)CC1
